These results are taken from patent publication US20020054861A1, “Method of preparing particularly skin-compatible cosmetic or dematological cleansing preparations” (priority 1999, published 2002).

For the assay, the system named is skin (inner sides of the forearms). Briefly: Adsorption of lauryl ether sulfate on the skin in a simulated washing operation (forearm, desorption with Triton X-100, ion-pair chromatography). The assay is classed as in vivo, human. On the procedure:
The method which we have developed for determining the adsorption of lauryl ether sulfate on the skin simulates a washing operation as occurs, for example, during daily showering: Firstly, the inner sides of the forearms are divided into a number of test areas using insulating tape. The area to be treated is then wetted with approximately 50 ml of mains wafer (T=38±1° C.). The lauryl ether sulfate is then applied. Throughout the application period of 45 s, the test subject distributes the lauryl ether sulfate over the area using 2 fingers in uniform circular movements. At the end of the application period, the test area is rinsed with approximately 950 ml of mains water (T=38±1° C.) and carefully patted dry using a clean cellulose cloth. For the desorption, a plastic ring with an internal diameter of 25 mm is pressed firmly onto the inner side of the test subject's forearm. 1000 μl of a 1% Triton X-100 solution are then introduced into the ring. The tip of a round Teflon-coated spatula is then used to scrape the skin uniformly for 1 min. This leads to suspension of corneocytes. To work up the samples for analysis, the samples are centrifuged and 800 μl of the supernatant are drawn off. The supernatant is analyzed with regard to its lauryl ether sulfate content using ion-pair chromatography. The effectiveness of the desorption method described is 79%, i.e. 79% of the amount of lauryl ether sulfate actually present on the skin are included.

Setting [1] is: cosurfactant concentration 3%, added to a lauryl ether sulfate solution.

`CCCCCCCCCCO[C@@H]1O[C@H](CO)[C@@H](O)[C@H](O)[C@H]1O` [Decyl glucoside]: the “Effect on the adsorbed amount of lauryl ether sulfate (reduction)” value (shortened to “Effect on the adsorbed amount … (reduction)”) (cosurfactant concentration 5%, added to a lauryl ether sulfate solution) is on record as “Reduction by 29%”.
As for cocamidopropylbetaine, the “Effect on the adsorbed amount … (reduction)” value under setting [1] is reported as “Reduction by 31%”.
`CCCCCCCCCCCC(=O)O` [Lauric acid]: the “Effect on the adsorbed amount … (reduction)” value (cosurfactant concentration 1%, pH9, added to a lauryl ether sulfate solution) was “Reduction by 15%”.
On to sodium cocoamphoacetate, for which the “Effect on the adsorbed amount … (reduction)” value under setting [1] is recorded as “Reduction by 27%”.
The same measure, in the same setting: the result for disodium laureth sulfosuccinate reads “Reduction by 28%”.
